Consider 26 molecules from patent US20060281763A1, “Carboxamide inhibitors of TGFbeta” (priority 2005, published 2006).

Molecules are shown by their SMILES.

The target of the first assay is T1, TGFβ R1 (Homo sapiens, UniProt P36897).
T1 sequence (P36897 34-503): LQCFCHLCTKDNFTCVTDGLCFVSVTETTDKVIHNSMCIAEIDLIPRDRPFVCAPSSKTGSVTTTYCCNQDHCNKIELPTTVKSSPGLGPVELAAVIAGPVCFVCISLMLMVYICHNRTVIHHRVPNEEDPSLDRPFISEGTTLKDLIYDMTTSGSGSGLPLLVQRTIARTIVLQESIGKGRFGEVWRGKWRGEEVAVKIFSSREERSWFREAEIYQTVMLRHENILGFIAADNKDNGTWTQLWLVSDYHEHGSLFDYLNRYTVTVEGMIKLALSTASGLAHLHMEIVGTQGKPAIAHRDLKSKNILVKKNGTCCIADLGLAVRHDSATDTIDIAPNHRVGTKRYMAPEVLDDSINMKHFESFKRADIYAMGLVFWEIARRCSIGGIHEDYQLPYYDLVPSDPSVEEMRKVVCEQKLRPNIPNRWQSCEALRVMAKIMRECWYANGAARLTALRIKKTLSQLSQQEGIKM
Briefly: TGFβ R1 autophosphorylation protocol (33P-ATP, phosphocellulose filter plate). The format is biochemical. As to conditions: 10 uM ATP, 170 nM TGFβ R1, 20 minutes at room temperature, read-out: IC50 for Kinase Inhibition. As to the method:
The compounds of the invention were tested for their ability to inhibit TGFβ by a TGFβ R^1 autophosphorylation protocol. This was conducted as follows: Compound dilutions and reagents were prepared fresh daily. Compounds were diluted from DMSO stock solutions to 2 times the desired assay concentration, keeping final DMSO concentration in the assay less than or equal to 1%. TGFβ R1 was diluted to 4 times the desired assay concentration in buffer+DTT. ATP was diluted into 4× reaction buffer, and gamma-^33P-ATP was added at 60 uCi/mL.
The assay was performed by adding 10 ul of the enzyme to 20 ul of the compound solution. The reaction was initiated by the addition of 10 ul of ATP mix. Final assay conditions included 10 uM ATP, 170 nM TGFβ R1, and […] in 20 mM MOPS, pH7. The reactions were incubated at room temperature for 20 minutes. The reactions were stopped by transferring 23 ul of reaction mixture onto a phosphocellulose 96-well filter plate, which had been pre-wetted with 15 ul of 0.25M H3PO4 per well. After 5 minutes, the wells were washed 4× with 75 mM H3PO4 and once with 95% ethanol. The plate was dried, scintillation cocktail was added to each well, and the wells were counted in a Packard TopCount microplate scintillation counter.
Consider `CNCCNC(=O)c1cnccc1Nc1nc(-c2cc(Cl)ccc2F)ncc1N1CCCC1` [Compound 22, 4-[2-(5-Chloro-2-fluoro-phenyl)-5-pyrrolidin-1-yl-pyrimidin-4-ylamino]-N-(2-methylamino-ethyl)-nicotinamide], for which the IC50 is 100 nM. In the case of `COc1cnc(-c2cc(Cl)ccc2F)nc1Nc1ccncc1C(=O)NCCCNC(=O)COC1O[C@H](COC(C)=O)[C@@H](OC(C)=O)[C@H](OC(C)=O)[C@H]1OC(C)=O` (some centres unmarked) [Compound 133], the half-maximal inhibitory concentration (IC50) was 327 nM. Same read-out and setting: the result for `COc1cnc(-c2cc(Cl)ccc2F)nc1Nc1ccncc1C(=O)NCC(C)(C)N` [Compound 130, N-(2-Amino-2-methyl-propyl)-4-[2-(5-chloro-2-fluoro-phenyl)-5-methoxy-pyrimidin-4-ylamino]-nicotioamide] reads 38 nM; that for `COc1cnc(-c2cc(Cl)ccc2F)nc1Nc1ccncc1C(=O)NC1CCN(C(=O)OC(C)(C)C)C1` (centres unmarked) [Compound 82, 3-((4-[2-(5-Chloro-2-fluoro-phenyl)-5-methoxy-pyrimidin-4-ylamino]-pyridine-3-carbonyl)-amino)-pyrrolidine-1-carboxylic acid tert-butyl ester], 310 nM; that for `COC(=O)[C@H]1C[C@@H](NC(=O)c2cnccc2Nc2nc(-c3cc(Cl)ccc3F)ncc2OC)CN1` [Compound 89, 4-({4-[2-(5-Chloro-2-fluoro-phenyl)-5-methoxy-pyrimidin-4-ylamino]-pyridine-3-carbonyl}-amino)-pyrrolidine-2-carboxylic acid methyl ester], 190 nM.

Regarding `COc1ccc(NC(=O)NCCCNC(=O)c2cnccc2Nc2nc(-c3cc(Cl)ccc3F)ncc2OC)cc1OC` [Compound 67, 4-[2-(5-Chloro-2-fluoro-phenyl)-5-methoxy-pyrimidin-4-ylamino]-N-{3-[3-(3,4-dimethoxy-phenyl)-ureido]-propyl}-nicotinamide], the IC50 stood at 440 nM.

As to `COc1cnc(-c2cc(Cl)ccc2F)nc1Nc1ccncc1C(=O)NCCCN1CCCC1C(=O)N(C)C` (centres unmarked) [Compound 81, 4-[2-(5-Chloro-2-fluoro-phenyl)-5-methoxy-pyrimidin-4-ylamino]-N-[3-(2-dimethylcarbamoyl-pyrrolidin-1-yl)-propyl]-nicotinamide], the IC50 was found to be 120 nM. Consider `COc1cnc(-c2cc(Cl)ccc2F)nc1Nc1ccncc1C(=O)NCCNC(=O)OC(C)(C)C` [Compound 32, [2-({4-[2-(5-Chloro-2-fluoro-phenyl)-5-methoxy-pyrimidin-4-ylamino]-pyridine-3-carbonyl}-amino)-ethyl]-carbamic acid tert-butyl ester], for which the concentration for half-maximal inhibition (IC50) worked out at 560 nM. Regarding `CC(C)c1cnc(-c2cc(Cl)ccc2F)nc1Nc1ccncc1C(=O)N[C@H]1CCC[C@@H]1O` [Compound 83, 4-[2-(5-Chloro-2-fluoro-phenyl)-5-isopropyl-pyrimidin-4-ylamino)-N-(2-hydroxy-cyclopentyl)-nicotinamide], the half-maximal inhibitory concentration (IC50) turned out to be 230 nM. The same measure, in the same setting: the value for `COc1cnc(-c2cc(Cl)ccc2F)nc1Nc1ccncc1C(=O)NCCC(N)=O` [Compound 70, N-(2-Carbamoyl-ethyl)-4-[2-(5-choro-2-fluoro-phenyl)-5-methoxy-pyrimidin-4-ylamino]-nicotinamide] was 200 nM. Consider `COc1cnc(-c2cc(Cl)ccc2F)nc1Nc1ccncc1C(=O)N1CCN(C)CC1` [Compound 118, {4-[2-(5-Chloro-2-fluoro-phenyl)-5-methoxy-pyrimidin-4-ylamino]-pyridin-3-yl}-(4-methyl-piperazin-1-yl)-methanone], for which the IC50 was 6570 nM.

For `COc1cnc(-c2cc(Cl)ccc2F)nc1Nc1ccncc1C(=O)NCC1(O)CCCCC1` [Compound 61, 4-[2-(5-Chloro-2-fluoro-phenyl)-5-methoxy-pyrimidin-4-ylamino]-N-(1-hydroxy-cyclohexylmethyl)-nicotinamide], the IC50 stood at 11800 nM. The same measure, in the same setting: the result for `COc1cnc(-c2cc(Cl)ccc2F)nc1Nc1ccncc1C(=O)NCCNCC(C)(C)O` [Compound 112, 4-[2-(5-Chloro-2-fluoro-phenyl)-5-methoxy-pyrimidin-4-ylamino]-N-[2-(2-hydroxy-2-methyl-propylamino)-ethyl]-nicotinamide] reads 90 nM; that for `COc1cnc(-c2cc(Cl)ccc2F)nc1Nc1ccncc1C(=O)NCCC#N` [Compound 72, 4-[2-(5-Chloro-2-fluoro-phenyl)-5-methoxy-pyrimidin-4-ylamino]-N-(2-cyano-ethyl)-nicotinamide], 100 nM.

Staying with this assay, now noted: 10 uM ATP, 170 nM TGFβ R1, room temperature 20 minutes, read-out: IC50 for Kinase Inhibition.
Take `CNC(=O)[C@@H]1CCCCN1CCCNC(=O)c1cnccc1Nc1nc(-c2cc(Cl)ccc2F)ncc1C(C)C` [Compound 184, 4-[2-(5-Chloro-2-fluoro-phenyl)-5-isopropyl-pyrimidin-4-ylamino]-N-[3-(2-methylcarbamoyl-piperidin-1-yl)-propyl}-nicotinamide]: the IC50 came to 12 nM. With `COc1cnc(-c2cc(Cl)ccc2F)nc1Nc1ccncc1C(=O)NCCCOCC(O)CO` (centres unmarked) [Compound 163, 4-[2-(5-Chloro-2-fluoro-phenyl)-5-methoxy-pyrimidin-4-ylamino]-N-[3-(2,3-dihydroxy-propoxy)-propyl]-nicotinamide], the IC50 turned out to be 33 nM. As for `COc1cnc(-c2cc(Cl)ccc2F)nc1Nc1ccncc1C(=O)NCCNCC[C@@H]1O[C@H](CO)[C@@H](O)[C@H]1O` [Compound 176, 4-[2-(5-Chloro-2-fluoro-phenyl)-5-methoxy-pyrimidin-4-ylamino]-N-{2-[2-(3,4-dihydroxy-5-hydroxymethyl-tetrahydro-furan-2-yl)-ethylamino]-ethyl}-nicotinamide], the IC50 worked out at 5 nM. On the same count and under the same terms, the value for `COc1cnc(-c2cc(Cl)ccc2F)nc1Nc1ccncc1C(=O)NC1CC1CO` (centres unmarked) [Compound 160, 4-[2-(5-Chloro-2-fluoro-phenyl)-5-methoxy-pyrimidin-4-ylamino]-N-(2-hydroxymethyl-cyclopropyl)-nicotinamide] was 9 nM. On the same count and under the same terms, the result for `CC(C)c1cnc(-c2cc(Cl)ccc2F)nc1Nc1cc[n+]([O-])cc1C(=O)NCC(C)(C)O` [Compound 196, 4-[2-(5-Chloro-2-fluoro-phenyl)-5-isopropyl-pyrimidin-4-ylamino]-N-(2-hydroxy-2-methyl-propyl)-1-oxy-nicotinamide] reads 245 nM; that for `CC(C)c1cnc(-c2cc(Cl)ccc2F)nc1Nc1ccncc1C(=O)N1CCC(O)CC1` [Compound 230, {4-[2-(5-Chloro-2-fluoro-phenyl)-5-isopropyl-pyrimidin-4-ylamino)-pyridin-3-yl}-(4-hydroxy-piperidin-1-yl)-methanone], 1140 nM. Same read-out and setting: the result for `CC(C)(O)CNC(=O)c1cnccc1Nc1nc(-c2cc(Cl)ccc2F)ncc1C1CC1` [Compound 165] reads 27 nM. For `COc1cnc(-c2cc(Cl)ccc2F)nc1Nc1ccncc1C(=O)NC1(CO)CC1` [Compound 162, 4-[2-(5-Chloro-2-fluoro-phenyl)-5-methoxy-pyrimidin-4-ylamino]-N-(1-hydroxymethyl-cyclopropyl)-nicotinamide], the IC50 is 42 nM.

Regarding `COc1cnc(-c2cc(Cl)ccc2F)nc1Nc1ccncc1C(=O)N1CCC[C@H](O)C1` [Compound 221, {4-[2-(5-Chloro-2-fluoro-phenyl)-5-methoxy-pyrimidin-4-ylamino]-pyridin-3-yl}-(3-hydroxy-piperidin-1-yl)-methanone], the IC50 turned out to be 1460 nM. Take `CC(C)c1cnc(-c2cc(Cl)ccc2F)nc1Nc1ccncc1C(=O)NC1CCC[C@@H]1OCc1ccccc1` (stereo in doubt) [Compound 223, N-(2-Benzyloxy-cyclopentyl)-4-[2-(5-chloro-2-fluoro-phenyl)-5-isopropyl-pyrimidin-4-ylamino]-nicotinamide]: the IC50 was found to be 7140 nM. The same measure, in the same setting: the result for `CC(C)c1cnc(-c2cc(Cl)ccc2F)nc1Nc1ccncc1C(=O)NCCCN1C[C@H](O)C[C@H]1C(=O)N1CCCC1` [Compound 191, 4-[2-(5-Chloro-2-fluoro-phenyl)-5-isopropyl-pyrimidin-4-ylamino]-N-{3-[4-hydroxy-2-(pyrrolidine-1-carbonyl)-pyrrolidin-1-yl]-propyl}-nicotinamide] reads 13 nM; that for `COc1cnc(-c2cc(Cl)ccc2F)nc1Nc1ccncc1C(=O)NCCCCCNC(=O)CCCC[C@H]1SC[C@@H]2NC(=O)N[C@@H]21` [Compound 202, 4-[2-(5-Chloro-2-fluoro-phenyl)-5-methoxy-pyrimidin-4-ylamino]-N-{5-[5-(2-oxo-hexahydro-thieno[3,4-d]imidazol-6-yl)-pentanoylamino]-pentyl]-nicotinamide], 54 nM.

A word on the IC50: it is the concentration that gives 50% inhibition.
